US20230278981A1, “DICHLOROPHENOL HSD17B13 INHIBITORS AND USES THEREOF” (INIPHARM, INC., priority 2020, published 2023)

Biological target: HSD17B13 (Homo sapiens (Human), UniProt Q7Z5P4)
Assay: LC/MS estrone detection assay: conversion of estradiol to estrone by HSD17B13
Format: biochemical
Conditions: 4 μM estradiol, 6 mM NAD+, 30 nM HSD17B13 enzyme (E. coli expressed His-tagged), 2 hours at 26.5° C.
Method: The liquid chromatography/mass spectrometry (LC/MS) estrone detection assay monitors the conversion of estradiol to estrone by HSD17B13. This assay was undertaken in a 96wp format (Eppendorf deep well Plate 96/500) in an 80 μl reaction volume containing: 4 μM of Estradiol (E2; Cayman; Ser. No. 10/006,315), 6 mM NAD+(Sigma; #N0623) and 30 nM HSD17B13 enzyme (in-house; E. coli expressed His-tagged, purified, soluble protein) in a reaction containing […] potassium phosphate buffer pH 7.4, with 0.5% vehicle (DMSO). Reactions were incubated for 2 hours at 26.5° C., and estradiol (E2) conversion to estrone (E1) was quantitated by LC-MS/MS based analyte detection for both E2 and E1 using LCMS grade reagents.
Reactions were terminated by the addition of two volumes of acetonitrile (MeCN; LCMS grade; CAS #75/05/8) containing deuterated (D4)-E1 used as internal standard (Clear Synth; #CS-T-54273; 500 ng/mL final concentration). Samples were applied to pre-prepared Bond Elut-C18 extraction cartridges (3 mL; Agilent; Ser. No. 12/102,028), washed and eluted in MeCN. Eluates were dried under nitrogen and re-suspended in 60% methanol (LCMS grade methanol; CAS #67/56/1) before submission for analysis. Aqueous linearity for E2 and E1 were included for quantification.
Analysis of samples was undertaken on a XBridge BEH C18 column (Waters; #186003033) using 0.1% Diethyl Amine in MeCN (mobile phase A; DEA CAS #109-89-7) and 0.1% Diethyl Amine in milli-Q water (mobile phase B) in a 3 min gradient allowing 25% B. Analytes were detected in negative mode using MRM analysis, with E2 having a RT of 1.85 min and E1 having a RT of 2 min. Activity of the enzyme, in the absence of NAD^+, was used to evaluate specificity of conversion. Enzyme activity in the presence of test samples was expressed as a percentage of the uninhibited enzyme activity, and plotted versus inhibitor concentration. Non-linear regression was performed using a four-parameter logistic model and GraphPad Prism software (GraphPad Software, La Jolla, Calif.). All assessments were undertaken in duplicate evaluations and pooled during extraction process and subsequently injected as duplicates for LC-MS/MS analysis.

Sequence of HSD17B13 (Q7Z5P4 20-300): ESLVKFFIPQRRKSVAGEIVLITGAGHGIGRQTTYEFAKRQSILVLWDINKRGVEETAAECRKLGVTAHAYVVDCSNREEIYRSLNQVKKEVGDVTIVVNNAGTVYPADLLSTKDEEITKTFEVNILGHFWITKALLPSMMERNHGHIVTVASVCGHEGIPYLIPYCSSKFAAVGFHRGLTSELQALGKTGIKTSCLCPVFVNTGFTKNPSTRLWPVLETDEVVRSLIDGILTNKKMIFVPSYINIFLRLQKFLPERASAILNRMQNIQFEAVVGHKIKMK

| Compound | IC50 |
| --- | --- |
| O=C(Nc1cccc2ncn(Cc3ccc(N4CCS(=O)(=O)CC4)cc3)c(=O)c12)c1cc(Cl)c(O)c(Cl)c1 [Example 63, 3,5-dichloro-N-(3-(4-(1,1-dioxidothiomorpholino)benzyl)-4-oxo-3,4-dihydroquinazolin-5-yl)-4-hydroxybenzamide] | 100 to 500 nM |
| Cc1nc2cccc(NC(=O)c3cc(Cl)c(O)c(Cl)c3)c2c(=O)n1Cc1ccccc1OC(F)(F)F [Example 64, 3,5-dichloro-4-hydroxy-N-(2-methyl-4-oxo-3-(2-(trifluoromethoxy)benzyl)-3,4-dihydroquinazolin-5-yl)benzamide] | ≤ 100 nM |
| O=C(Nc1cccc2ncn(Cc3cccc(OC(F)(F)F)c3)c(=O)c12)c1ccc(Cl)c(O)c1Cl [Example 65, 2,4-dichloro-3-hydroxy-N-(4-oxo-3-(3-(trifluoromethoxy)benzyl)-3,4-dihydroquinazolin-5-yl)benzamide] | 1000 to 10000 nM |
| N#Cc1ccccc1Cn1cnc2cccc(NC(=O)c3cc(Cl)c(O)c(Cl)n3)c2c1=O [Example 66, 4,6-dichloro-N-(3-(2-cyanobenzyl)-4-oxo-3,4-dihydroquinazolin-5-yl)-5-hydroxypicolinamide] | 100 to 500 nM |
| O=C(Nc1cccc2ncn(Cc3n[nH]c4ccccc34)c(=O)c12)c1cc(Cl)c(O)c(Cl)c1 [Example 67, N-(3-((1H-indazol-3-yl)methyl)-4-oxo-3,4-dihydroquinazolin-5-yl)-3,5-dichloro-4-hydroxybenzamide] | ≤ 100 nM |
| N#Cc1cc(C(=O)Nc2cccc3ncn(Cc4cccc(C(F)(F)F)c4)c(=O)c23)cc(Cl)c1O [Example 68, 3-chloro-5-cyano-4-hydroxy-N-(4-oxo-3-(3-(trifluoromethyl)benzyl)-3,4-dihydroquinazolin-5-yl)benzamide] | 100 to 500 nM |
| O=C(Nc1cccnc1C(=O)NCc1ccccc1OC(F)(F)F)c1cc(Cl)c(O)c(Cl)c1 [Example 69, 3-(3,5-dichloro-4-hydroxybenzamido)-N-(2-(trifluoromethoxy)benzyl) picolinamide] | 100 to 500 nM |
| O=C(Nc1cccc2nc(C(F)(F)F)n(Cc3ccccc3OC(F)(F)F)c(=O)c12)c1cc(Cl)c(O)c(Cl)c1 [Example 70, 3,5-dichloro-4-hydroxy-N-(4-oxo-3-(2-(trifluoromethoxy)benzyl)-2-(trifluoromethyl)-3,4-dihydroquinazolin-5-yl)benzamide] | 100 to 500 nM |
| CC(C)(C)CCNC(=O)c1ccccc1NC(=O)c1cc(Cl)c(O)c(Cl)c1 [Example 71, 3,5-dichloro-N-(2-((3,3-dimethylbutyl)carbamoyl)phenyl)-4-hydroxybenzamide] | 100 to 500 nM |
| O=C(Nc1cccc2ncn(C3(c4ccccc4F)CC3)c(=O)c12)c1cc(Cl)c(O)c(Cl)n1 [Example 72, 4,6-dichloro-N-(3-(1-(2-fluorophenyl)cyclopropyl)-4-oxo-3,4-dihydroquinazolin-5-yl)-5-hydroxypicolinamide] | 100 to 500 nM |
| O=C(Nc1cnccc1C(=O)NCc1ccccc1OC(F)(F)F)c1cc(Cl)c(O)c(Cl)c1 [Example 73, 3-(3,5-dichloro-4-hydroxybenzamido)-N-(2-(trifluoromethoxy)benzyl) isonicotinamide] | 100 to 500 nM |
| CC(c1ccccc1OC(F)(F)F)n1cnc2cccc(NC(=O)c3cc(Cl)c(O)c(Cl)c3)c2c1=O (centres unmarked) [Example 74, 3,5-dichloro-4-hydroxy-N-(4-oxo-3-(1-(2-(trifluoromethoxy)phenyl)ethyl)-3,4-dihydroquinazolin-5-yl)benzamide] | 100 to 500 nM |
| O=C(Nc1cccc2ncn(Cc3ncccc3C(F)(F)F)c(=O)c12)c1cc(Cl)c(O)c(Cl)c1 [Example 75, 3,5-dichloro-4-hydroxy-N-(4-oxo-3-((3-(trifluoromethyl)pyridin-2-yl)methyl)-3,4-dihydroquinazolin-5-yl)benzamide] | ≤ 100 nM |
| O=C(Nc1cccc2ncn(Cc3ccn(-c4ccccc4F)n3)c(=O)c12)c1cc(Cl)c(O)c(Cl)c1 [Example 76, 3,5-dichloro-N-(3-((1-(2-fluorophenyl)-1H-pyrazol-3-yl)methyl)-4-oxo-3,4-dihydroquinazolin-5-yl)-4-hydroxybenzamide] | ≤ 100 nM |
| O=C(Nc1cccc2ncn(Cc3ccn(-c4ccccc4)n3)c(=O)c12)c1cc(Cl)c(O)c(Cl)c1 [Example 77, 3,5-dichloro-4-hydroxy-N-(4-oxo-3-((1-phenyl-1H-pyrazol-3-yl)methyl)-3,4-dihydroquinazolin-5-yl)benzamide] | 100 to 500 nM |
| O=C(Nc1cccc2ncn(C(c3ccccc3)c3ccccc3)c(=O)c12)c1cc(Cl)c(O)c(Cl)c1 [Example 78, N-(3-benzhydryl-4-oxo-3,4-dihydroquinazolin-5-yl)-3,5-dichloro-4-hydroxybenzamide] | ≤ 100 nM |

Continued, values first:

| IC50 | Compound |
| --- | --- |
| 500 to 1000 nM | CS(=O)(=O)c1ccccc1Cn1cnc2cccc(NC(=O)c3cc(Cl)c(O)c(Cl)n3)c2c1=O [Example 79, 4,6-dichloro-5-hydroxy-N-(3-(2-(methylsulfonyl)benzyl)-4-oxo-3,4-dihydroquinazolin-5-yl)picolinamide] |
| 500 to 1000 nM | O=C(Nc1cccc2ncn(Cc3cccnc3)c(=O)c12)c1cc(Cl)c(O)c(Cl)c1 [Example 80, 3,5-dichloro-4-hydroxy-N-(4-oxo-3-(pyridin-3-ylmethyl)-3,4-dihydroquinazolin-5-yl)benzamide] |
| ≤ 100 nM | O=C(Nc1ccc(Cl)c2ncn(Cc3ccccc3OC(F)(F)F)c(=O)c12)c1cc(Cl)c(O)c(Cl)c1 [Example 81, 3,5-dichloro-N-(8-chloro-4-oxo-3-(2-(trifluoromethoxy)benzyl)-3,4-dihydroquinazolin-5-yl)-4-hydroxybenzamide] |
| ≤ 100 nM | O=C(Nc1cccc2ncn(Cc3cccnc3C(F)(F)F)c(=O)c12)c1cc(Cl)c(O)c(Cl)c1 [Example 82, 3,5-dichloro-4-hydroxy-N-(4-oxo-3-((2-(trifluoromethyl)pyridin-3-yl)methyl)-3,4-dihydroquinazolin-5-yl)benzamide] |
| 1000 to 10000 nM | O=C(Nc1cccc2ncn(Cc3ccccc3N3CCS(=O)(=O)CC3)c(=O)c12)c1cc(Cl)c(O)c(Cl)c1 [Example 83, 3,5-dichloro-N-(3-(2-(1,1-dioxidothiomorpholino)benzyl)-4-oxo-3,4-dihydroquinazolin-5-yl)-4-hydroxybenzamide] |
| ≤ 100 nM | O=C(Nc1cccc2ncn(Cc3ccccc3N3CCOCC3)c(=O)c12)c1cc(Cl)c(O)c(Cl)c1 [Example 84, 3,5-dichloro-4-hydroxy-N-(3-(2-morpholinobenzyl)-4-oxo-3,4-dihydroquinazolin-5-yl)benzamide] |
| > 10000 nM | CN(C)CCOc1ccc(NC(=O)c2cc(Cl)c(O)c(Cl)c2)c(C(=O)NCc2ccccc2OC(F)(F)F)c1 [Example 85, 3,5-dichloro-N-(4-(2-(dimethylamino)ethoxy)-2-((2-(trifluoromethoxy)benzyl)carbamoyl)phenyl)-4-hydroxybenzamide] |
| 100 to 500 nM | O=C(Nc1ccc(OCCO)cc1C(=O)NCc1ccccc1OC(F)(F)F)c1cc(Cl)c(O)c(Cl)c1 [Example 86, 3,5-dichloro-4-hydroxy-N-(4-(2-hydroxyethoxy)-2-((2-(trifluoromethoxy)benzyl)carbamoyl)phenyl)benzamide] |
| 100 to 500 nM | O=C(Nc1cccc2ncn(Cc3cccnc3OC(F)(F)F)c(=O)c12)c1cc(Cl)c(O)c(Cl)c1 [Example 87, 3,5-dichloro-4-hydroxy-N-(4-oxo-3-((2-(trifluoromethoxy)pyridin-3-yl)methyl)-3,4-dihydroquinazolin-5-yl)benzamide] |
| ≤ 100 nM | Cc1ccc(NC(=O)c2cc(Cl)c(O)c(Cl)c2)c2c(=O)n(Cc3ccccc3OC(F)(F)F)cnc12 [Example 88, 3,5-dichloro-4-hydroxy-N-(8-methyl-4-oxo-3-(2-(trifluoromethoxy)benzyl)-3,4-dihydroquinazolin-5-yl)benzamide] |
| ≤ 100 nM | Cc1ccc(NC(=O)c2cc(Cl)c(O)c(Cl)c2)c2c(=O)n(Cc3ccccc3OC(F)(F)F)c(C)nc12 [Example 89, 3,5-dichloro-N-(2,8-dimethyl-4-oxo-3-(2-(trifluoromethoxy)benzyl)-3,4-dihydroquinazolin-5-yl)-4-hydroxybenzamide] |
| 100 to 500 nM | O=C(Nc1ccc(Cl)c2ncn(Cc3ccccc3OC(F)(F)F)c(=O)c12)c1cc(Cl)c(O)c(Cl)n1 [Example 90, 4,6-dichloro-N-(8-chloro-4-oxo-3-(2-(trifluoromethoxy)benzyl)-3,4-dihydroquinazolin-5-yl)-5-hydroxypicolinamide] |
| 100 to 500 nM | Cc1ccc(NC(=O)c2cc(Cl)c(O)c(Cl)n2)c2c(=O)n(Cc3ccccc3OC(F)(F)F)cnc12 [Example 91, 4,6-dichloro-5-hydroxy-N-(8-methyl-4-oxo-3-(2-(trifluoromethoxy)benzyl)-3,4-dihydroquinazolin-5-yl)picolinamide] |
